Test results: patent US20020055094A1 (priority 1996, published 2002)

Tests used:
Assay type in all cases: binding
[1] = test system: influenza A NWS/G70C
[2] = test system: NWS/G70C influenza A virus
[3] = test system: NWS/G70C influenza A virus; remark: listed apart in the source

5-acetamido-7-{6′-[6″-(6″′-biotinylaminocaproyl) -tri-amingcaroyl]-aminohexyl}-carbamoyloxy-4-guanidino -2,3,4,5-tetradeoxy-D-glycero-D-gaacto-non-2-enopyranosonic acid [Compound No. 26]
compound concentration giving the best results [1]: 0.1 µM | virus amount readily detected [1]: 2.5×10^5 pfu/well

CC(=O)N[C@H]1[C@H]([C@H](OC(=O)NCCCCCCNC(=O)NCCCCCCN)[C@H](O)CO)OC(C(=O)O)=C[C@@H]1NC(=N)N [Compound No. 8, 5-acetamido-7-[6′-(6″-aminohexylureido)-hexyl]-carbamoyloxy-4-guanidino-2,3,4,5-tetradeoxy-D-glycero-D-galacto-non-2-enopyranosonic acid]
signal in direct detection [2]: no signal at any concentration of virus

CC(=O)N[C@H]1[C@H]([C@H](OC(=O)NCCCCCCNC(=O)CNC(=O)CNC(=O)CNC(=O)CCCC[C@@H]2SC[C@@H]3NC(=O)N[C@@H]32)[C@H](O)CO)OC(C(=O)O)=C[C@@H]1NC(=N)N [Compound No. 21, 5-acetamido-7-(6′-biotinylamino-tricrlycinamido-hexy) -carbamoyloxy-4-guanidino-2,3,4,5-tetradeoxy-D-glycerQ-D-galacto-non-2-enopyranosonic acid]
minimum virus detectable [2]: about 10^5 virus particles per well | compound concentration giving the best result [3]: 0.01 µM | virus detection limit of captured complex [3]: ≤ 0.625×10^5 pfu
